Structures can show the parent of a compound that is named as a salt. Where two headings read alike, the source gives them in different places.
Tests used:
Type in all cases: cell-based
E. coli NIHJ = test: Antibacterial activity (MIC, agar plate, standard method of the Japanese Chemotherapeutic Society); conditions: 10^4 cells/plate, 37° C., 20 hours
Experimental: (§1) According to the standard method of the Japanese Chemotherapeutic Society [Chemotherapy, Vol. 23, Pages 1-2 (1975)], a culture obtained by cultivating bacteria in Heart Infusion broth (manufactured by Eken Kagakusha) at 37° C. for 20 hours was inoculated into a Heart Infusion agar medium (manufactured by Eiken Kagakusha) and cultivated at 37° C. for 20 hours, after which the growth of bacteria was examined visually. The minimum inhibitory concentration at which the bacterial growth was inhibited was taken as MIC (μg/ml). The amount of the inoculated bacteria was 10^4 cells/plate (10^6 cells/ml).

Kl. pneumoniae Y-50 = test: Antibacterial activity (MIC, agar plate); conditions: 37° C., 20 hours
Experimental: as §1

Pro. mirabilis T-111 = test: Antibacterial activity (MIC, agar plate)
Experimental: as §1

[1] = system: E. coli TK3 (Penicillinase-producing bacteria); test: Antibacterial activity (MIC, agar plate)
Experimental: as §1

Aci. calcoaceticus A-6 = test: Antibacterial activity (MIC, agar plate); conditions: Acinetobacter calcoaceticus, A6, 10^4 cells/plate, 37° C., 20 hours, read-out: MIC
Experimental: as §1

Pro. morganii T-216 = test: Antibacterial activity (MIC, agar plate); conditions: Morganella morganii, T216, 20 h
Experimental: as §1

[2] = system: Pro. vulgaris GN76 (Cephalosporinase-producing bacteria); test: Antibacterial activity (MIC, agar plate); conditions: Proteus vulgaris; Pro. vulgaris GN76 (cephalosporinase-producing); 10^4 cells/plate, 37° C., 20 hours; read-out: MIC
Experimental: as §1

Al. faecalis B-1 = test: Antibacterial activity (MIC, agar plate); conditions: Alcaligenes faecalis, B1; Al. faecalis B-1; 10^4 cells/plate, 37° C., 20 hours; read-out: MIC
Experimental: as §1

Kl. pneumoniae Y-41 = test: Antibacterial activity (MIC, agar plate)
Experimental: as §1

Ser. marcescens IID620 = test: Antibacterial activity (MIC, agar plate); conditions: Serratia marcescens, IID620, 20 h
Experimental: as §1

Ent. cloacae IID977 = test: Antibacterial activity (MIC, agar plate); conditions: Enterobacter cloacae, 10^4 cells/plate, 37° C., 20 hours, read-out: MIC
Experimental: as §1

Pro. mirabilis T-100 = test: Antibacterial activity (MIC, agar plate); conditions: 37° C., 20 hours
Experimental: as §1

[3] = Escherichia coli, read-out: MIC
[4] = Klebsiella pneumoniae, Y50, 10^4 cells/plate, read-out: MIC
[5] = Klebsiella pneumoniae, Y41, Kl. pneumoniae Y-41, 10^4 cells/plate, 37° C., 20 hours, read-out: MIC
[6] = Proteus mirabilis, T100, 10^4 cells/plate, read-out: MIC
[7] = Klebsiella pneumoniae, Y41, 20 h

Structure (SMILES)	MIC (E. coli NIHJ; [3]) [µg/mL]	MIC (Kl. pneumoniae Y-50; [4]) [µg/mL]	MIC (Pro. mirabilis T-111; Proteus mirabilis, T111, 20 h) [µg/mL]	MIC ([1]; Escherichia coli, 20 h) [µg/mL]	MIC (Kl. pneumoniae Y-41; [5]) [µg/mL]	MIC (Pro. mirabilis T-100; [6]) [µg/mL]	other results
CO/N=C(\C(=O)NC1C(=O)N2C(C(=O)O)=C(Cn3nnc(N)n3)CSC12)c1csc(N)n1 (stereo not drawn) [H, Trifluoroacetic acid salt of 7-[2-(2-aminothiazol-4-yl)-2-(syn)-methoxyiminoacetamido]-3-[2-(5-amino-1,2,3,4-tetrazolyl)methyl]-Δ^3-cephem-4-carboxylic acid]	≤ 0.1	0.2	0.39	0.78	0.39	–	MIC (Aci. calcoaceticus A-6): 25 µg/mL; MIC (Pro. morganii T-216): 0.78 µg/mL; MIC [2]: 1.56 µg/mL; MIC (Al. faecalis B-1): 12.5 µg/mL; MIC (Ser. marcescens IID620): 0.78 µg/mL; MIC (Ent. cloacae IID977): 12.5 µg/mL
CO/N=C(\C(=O)NC1C(=O)N2C(C(=O)O)=C(Cn3nnc(NC(C)=O)n3)CSC12)c1csc(N)n1 (stereo not drawn) [I, Trifluoroacetic acid salt of 7-[2-(2-aminothiazol-4-yl)-2-(syn)-methoxyiminoacetamido]-3-[2-(5-acetamido-1,2,3,4-tetrazolyl)methyl]-Δ^3-cephem-4-carboxylic acid]	≤ 0.1	≤ 0.1	≤ 0.1	0.39	–	≤ 0.1	MIC (Kl. pneumoniae Y-41; [7]): 0.2 µg/mL
CO/N=C(\C(=O)NC1C(=O)N2C(C(=O)O)=C(Cn3nnc(C)n3)CSC12)c1csc(N)n1 (stereo not drawn) [J, Trifluoroacetic acid salt of 7-[2-(2-aminothiazol-4-yl)-2-(syn)-methoxyiminoacetamido]-3-[2-(5-methyl-1,2,3,4-tetrazolyl)methyl]-Δ^3-cephem-4-carboxylic acid]	≤ 0.1	≤ 0.1	–	0.39	–	≤ 0.1	MIC (Pro. mirabilis T-111; Proteus mirabilis, T111, Pro. mirabilis T-111, 10^4 cells/plate, 37° C., 20 hours, read-out: MIC): 0.2 µg/mL; MIC (Kl. pneumoniae Y-41; [7]): ≤ 0.39 µg/mL
CCc1nnn(CC2=C(C(=O)O)N3C(=O)C(NC(=O)/C(=N\OC)c4csc(N)n4)C3SC2)n1 (stereo not drawn) [K, Trifluoroacetic acid salt of 7-[2-(2-aminothiazol-4-yl)-2-(syn)-methoxyiminoacetamido]-3-[2-(5-ethyl-1,2,3,4-tetrazolyl)methyl]-Δ^3-cephem-4-carboxylic acid]	≤ 0.1	0.2	0.78	0.39	0.78	≤ 0.1	–
CO/N=C(\C(=O)NC1C(=O)N2C(C(=O)O)=C(Cn3cnc(Cl)n3)CS[C@H]12)c1csc(N)n1.O=C(O)C(F)(F)F (stereo partly drawn) [L, Trifluoroacetic acid salt of 7-[2-(2-aminothiazol-4-yl)-2-(syn)-methoxyiminoacetamido]-3-[(3-chloro-1,2,4-triazolyl)methyl]-Δ^3-cephem-4-carboxylic acid]	–	–	–	–	–	–	MIC (E. coli NIHJ): ≤ 0.1 µg/mL; MIC (Kl. pneumoniae Y-50; 10^4 cells/plate): ≤ 0.1 µg/mL; MIC (Pro. mirabilis T-111; Pro. mirabilis T-111, 10^4 cells/plate, 37° C., 20 hours): 0.78 µg/mL; MIC ([1]; E. coli TK3 (penicillinase-producing), 10^4 cells/plate, 37° C., 20 hours): 0.39 µg/mL; MIC (Pro. mirabilis T-100; 10^4 cells/plate): ≤ 0.1 µg/mL; MIC (Kl. pneumoniae Y-41; Kl. pneumoniae Y-41, 10^4 cells/plate, 37° C., 20 hours): 0.39 µg/mL
CC(=O)Nc1nnn(CC2=C(C(=O)O)N3C(=O)C(NC(=O)Cc4csc(N)n4)C3SC2)n1 (centres unmarked) [M, Trifluoroacetic acid salt of 7-[2-(2-aminothiazol-4-yl)acetamido]-3-[2-(5-acetamido-1,2,3,4-tetrazolyl)methyl]-Δ^3-cephem-4-carboxylic acid]	0.39	0.78	0.78	1.56	0.78	0.39	–
Nc1nc(CC(=O)NC2C(=O)N3C(C(=O)O)=C(Cn4ncnn4)CSC23)cs1 (centres unmarked) [N, Trifluoroacetic acid salt of 7-[2-(2-aminothiazol-4-yl)acetamido]-3-[2-(1,2,3,4-tetrazolyl)methyl]-Δ^3-cephem-4-carboxylic acid]	0.39	0.39	0.78	1.56	0.78	0.39	–

Source: patent US4879381A, “7-(substituted or unsubstituted amino) 3-substituted methyl-^3 cephem-4-carboxylic acid” (Toyoma Chemical Company, Ltd., priority 1980, dated 1989)
